Patent publication US5152784A, “Prosthetic devices coated with a polypeptide with type IV collagen activity” (Regents of the University of Minnesota, priority 1991, dated 1992)
“Also recorded” adds a separate entry of the source.

What was measured:
peptide Hep-III = biological target: T1, peptide Hep-III (Homo sapiens, UniProt P02462); experiment: Competition of 3H-heparin binding to coated peptide Hep-III by glycosaminoglycans; conditions: Hep-III coated from 500 μg/ml; 3H-heparin 50,000 cpm per well; unlabeled glycosaminoglycan in increasing amounts
T1 construct: residues 531-543 from the amino-terminus of the α1 chain of type IV collagen; The single letter amino acid code for this polypeptide is GEFYFDLRLKGDK; made in house; host or cells: chemical solid-phase (Merrifield) peptide synthesis
Protocol: To check the specificity of the interaction between heparin and peptide Hep-III or whether the heparin structure was also critical to this interaction, heparin along with other sulfated glucosaminoglycans, dextran and chondroitin sulfate were used in competition experiments. A standard amount of […] of a solution containing 500 μg/ml of peptide Hep-III was coated on 96-well plates as described above. Wells were treated for two hours with 2 mg/ml BSA in wash buffer. Then, a final volume of 50 μl was added to each well, containing a standard amount of ^3 H-heparin (50,000 cpm per well) and various amounts of non-radioactive heparin, dextran or chondroitin sulfate. After incubating for two hours at 37° C., the wells were washed and radioactivity was counted as described above in Example 1.

[1] = Heparin binding to plastic plates coated with peptide
Protocol: The ability of the synthesized peptide Hep-III to interact with heparin when coated on 96-well plastic plates was evaluated. Stock solutions of peptide Hep-III at a concentration of 500 μg/ml were prepared in phosphate-buffered saline containing 0.02% sodium azide. Fifty μl from each concentration was coated on the 96-well plates and left to dry overnight at 28° C. Then, wells were treated for two hours with […] of 2 mg/ml BSA and 6 mM phosphate, 10 mM NaCl, 68 μM CaCl2, pH 6.8 (wash buffer) in order to minimize non-specific binding. Next 50 μl of ^3 H-heparin (10 μg/ml) was added at increasing concentrations (0 to 1400 ng/well) for two hours at 37° C. The wells were then washed three times with wash buffer containing 0.05% Triton X-100 and finally they were incubated for thirty minutes at 60° C. with 200 μl of 0.5N NaOH and 1% SDS. The amount of ^3 H-heparin bound at each concentration was quantitated with a Beckman LS-3801 liquid scintillation counter. […] Comparison with data obtained using exactly the same methodology indicate that peptide Hep-III is at least 10 times stronger than peptide Hep-I (TS-2 in U.S. Pat. No. 4,876,332) (see FIG. 5B) and about 100 times stronger than type IV collagen, when used in the same coating concentrations.

type IV collagen = biological target: T2, type IV collagen (Homo sapiens, UniProt P02462+P08572); experiment: Inhibition of 3H-heparin binding to type IV collagen coated on plastic by peptide in solution; conditions: peptide in solution 0.5 mg/ml to 5 μg/ml; 3H-heparin 500 ng per well; type IV collagen coated at 60 μg/ml
T2 construct: intact, native type IV collagen coated on plastic
Protocol: Peptide Hep-III in solution (and not absorbed to plastic), was screened for the ability to inhibit the binding of heparin to intact, native type IV collagen coated on plastic. This experimental approach avoids problems due to differential coating of peptides in heparin binding assays. Type IV collagen at 60 μg/ml in PBS was coated on 96-well plates, using 50 μl per well and dried overnight at 28° C. The wells were then treated for two hours with 2 mg/ml BSA in wash buffer (described above in Example 1). Peptide Hep-III at various dilutions ranging from 0.5 mg/ml to 5 μg/ml in PBS and CHAPS (cholamido-propyl-dimethyl-ammoniopropane-sulfonate) (a detergent used to avoid non-specific sticking) was co-incubated with a standard amount of ^3 H-heparin (500 ng per well […]) for two hours at 37° C. and the mixture was then transferred to the collagen coated plate (50 μl) and allowed to incubate for another two hours at 37° C. The wells were then washed and radioactivity was counted as described above.

K-1735-M4 melanoma cells = experiment: Adhesion of melanoma cells to peptide-coated wells; type: cell-based, murine; conditions: 120 minutes, 37° C.
From the text: Highly metastatic murmine melanoma cells, K-1735-M4 were originally provided by Dr. I. J. Fidler of Anderson Hospital, University of Texas Health Sciences Center, Houston, Tex. When the cells were received, a large number of early passage cells were propagated and frozen in liquid nitrogen. The tumor cells are usually cultured in vitro for no longer than six weeks. Following this period, the cells are discarded and new cells withdrawn from storage for use in further in vitro or in vivo experiments. This precaution is taken to minimize phenotypic drift that can occur as a result of continuous in vitro passage. The cells were cultured in Dulbecco's Modified Eagle's Medium containing 5% heat inactivated fetal calf serum. The cultures were grown in 37° C. incubators with a humidified atmosphere containing 5% CO2. Cells were subcultured twice weekly by releasing cells gently from the flask, using 0.05% trypsin and 1 mM EDTA.
Cultures of cells which were 60-80% confluent were metabolically labeled for 24 hours with the addition of 3 mCi/ml of ^3 H-td (tritiated thymidine). On the day of the assay, the cells were harvested by trypsinization, the trypsin was inhibited by the addition of serum, and the cells were washed free of this mixture and resuspended in DMEM buffered with HEPES at pH 7.2. […] The solubilized cells were then quantitated using a liquid scintillation counter. […]

melanoma cell line (M4) = experiment: Inhibition of melanoma cell adhesion to type IV collagen-coated wells by peptide in solution; type: cell-based, murine; conditions: cells coincubated 20 min with peptide in solution, then 20 min on collagen-coated wells
Protocol: Cells were grown, labeled and harvested as described in Example 4, but after detachment and washing they were coincubated for 20 min. in the presence of various concentrations of peptide Hep-III in solution. They were then applied for another 20 min. on type IV collagen-coated plastic wells. At the end of the incubation the same treatment described in Example 4 was used.

[2] = test system: Bovine aortic endothelial cells; experiment: Direct adhesion of endothelial cells to peptide-coated plastic; type: cell-based; conditions: coated at increasing concentrations; 120 min, 37° C.
Protocol: Bovine aortic endothelial cells were isolated according to the following protocol. Aortas were obtained from a local slaughterhouse, washed in cold phosphate buffered saline (PBS) (136 mM NaCl, 2.6 mM KCl, 15.2 mM Na2 HPO4, pH 7.2) and processed within 2 hours. Crude collagenase (CLS III, 125-145 units per mg dry weight, Cooper Biomedical) was used at 2 mg/ml in Dulbecco's modified Eagle's medium (DMEM) (GIBCO). The vessel was clamped at the distal end, filled with the collagenase-PBS solution and digestion was carried out for 10 minutes. The lumenal contents were harvested, followed by the addition of fresh collagenase for two additional 10-minute periods. The enzyme-cell suspensions were added to an equal volume of DMEM containing 10% fetal bovine serum (FBS) to inhibit the enzyme and spun in a centrifuge at 400×g for 10 minutes. The resulting cell pellet was resuspended in DMEM containing 10% FBS, 100 units/ml of penicillin G, 100 μg/ml of streptomycin and 100 μg/ml of crude fibroblast growth factor. Cells are in 75 cm^2 flasks in a humidified 5% CO2 atmosphere at 37° C. Cultures were fed twice a week with the same medium and cells were used in assays when approximately 75% confluent. The cells were labeled for 24 hours prior to use with a mixture of ^35 S-labeled amino acids (3 mCi). […]

endothelial cells [3] = experiment: Direct binding of 125I-labeled peptide Hep-III to endothelial cell surface; set-up: species or system bovine; conditions: about 5,000 cells; 15 min, 4° C.; increasing peptide concentrations
Protocol: (§1) Endothelial and melanoma cells were grown in culture as described in Examples 4, 5, and 6 (supra). Cells used for this type of experiment were not labeled with radioactivity. Unlabeled cells were harvested by trypsinization (supra) on the day of the experiment. About 5,000 cells were mixed with 50 μl of a given concentration of peptide Hep-III in solution. Increasing concentrations of peptide Hep-III were used. The cells were incubated with the iodinated peptide for 15 min. at 4° C. and they were then pelleted by centrifugation. The cells were then resuspended and washed 3 times with DMEM containing 2 mg/ml BSA and 50 mM Hepes. Following the washes, the cells were pelleted for a final time in plastic tubes, the supernatant was decanted and the radioactivity of the pellet was quantitated in a Beckman scintillation counter. The binding of peptide Hep-III to endothelial cells is saturable (FIG. 10B)--an indication of specificity. […] These experiments indicate that peptide Hep-III specificity interacts with the surfaces of both endothelial cells and melanoma.

melanoma cells [4] = experiment: Direct binding of 125I-labeled peptide Hep-III to melanoma cell surface; set-up: species or system murine; conditions: about 5,000 cells; 15 min, 4° C.; increasing peptide concentrations
Protocol: as §1

melanoma cells [5] = experiment: Inhibition of 125I-Hep-III binding to melanoma cell surface by excess unlabeled peptide; set-up: species or system murine; conditions: unlabeled peptide up to 500-fold excess; 15 min, 4° C.
Protocol: (§2) Melanoma and endothelial cells were grown in culture as discussed in Examples 4, 5, 6, and 7A (supra). On the day of the experiment, the cells were harvested by trypsinization (supra) and were co-incubated with 50 μl of peptide Hep-III. 50 μl a constant amount of ^125 I-labeled peptide Hep-III was mixed with increasing concentrations of unlabeled peptide Hep-III or a control peptide (maximal excess of unlabeled peptide: 500-fold over radiolabeled Hep-III). 50 μl of each concentration of unlabeled peptide which was mixed with radiolabeled Hep-III were then added to cells in suspension (5,000 cells per concentration of peptide). The cells were incubated with the mixture of unlabeled-radiolabeled peptide for 15 min. at 4° C. and they were then pelleted. The cells were subsequently washed and bound radioactivity was quantitated as described in Example 7A. […] These experiments provide confirmation that a specific interaction occurs between melanoma and endothelial-cell surfaces and peptide Hep-III.

endothelial cells [6] = experiment: Inhibition of 125I-Hep-III binding to endothelial cell surface by excess unlabeled peptide; set-up: species or system bovine; conditions: unlabeled peptide up to 500-fold excess; 15 min, 4° C.
Protocol: as §2

[7] = same methodology, same coating concentrations

T2 sequence (P02462 173-1669): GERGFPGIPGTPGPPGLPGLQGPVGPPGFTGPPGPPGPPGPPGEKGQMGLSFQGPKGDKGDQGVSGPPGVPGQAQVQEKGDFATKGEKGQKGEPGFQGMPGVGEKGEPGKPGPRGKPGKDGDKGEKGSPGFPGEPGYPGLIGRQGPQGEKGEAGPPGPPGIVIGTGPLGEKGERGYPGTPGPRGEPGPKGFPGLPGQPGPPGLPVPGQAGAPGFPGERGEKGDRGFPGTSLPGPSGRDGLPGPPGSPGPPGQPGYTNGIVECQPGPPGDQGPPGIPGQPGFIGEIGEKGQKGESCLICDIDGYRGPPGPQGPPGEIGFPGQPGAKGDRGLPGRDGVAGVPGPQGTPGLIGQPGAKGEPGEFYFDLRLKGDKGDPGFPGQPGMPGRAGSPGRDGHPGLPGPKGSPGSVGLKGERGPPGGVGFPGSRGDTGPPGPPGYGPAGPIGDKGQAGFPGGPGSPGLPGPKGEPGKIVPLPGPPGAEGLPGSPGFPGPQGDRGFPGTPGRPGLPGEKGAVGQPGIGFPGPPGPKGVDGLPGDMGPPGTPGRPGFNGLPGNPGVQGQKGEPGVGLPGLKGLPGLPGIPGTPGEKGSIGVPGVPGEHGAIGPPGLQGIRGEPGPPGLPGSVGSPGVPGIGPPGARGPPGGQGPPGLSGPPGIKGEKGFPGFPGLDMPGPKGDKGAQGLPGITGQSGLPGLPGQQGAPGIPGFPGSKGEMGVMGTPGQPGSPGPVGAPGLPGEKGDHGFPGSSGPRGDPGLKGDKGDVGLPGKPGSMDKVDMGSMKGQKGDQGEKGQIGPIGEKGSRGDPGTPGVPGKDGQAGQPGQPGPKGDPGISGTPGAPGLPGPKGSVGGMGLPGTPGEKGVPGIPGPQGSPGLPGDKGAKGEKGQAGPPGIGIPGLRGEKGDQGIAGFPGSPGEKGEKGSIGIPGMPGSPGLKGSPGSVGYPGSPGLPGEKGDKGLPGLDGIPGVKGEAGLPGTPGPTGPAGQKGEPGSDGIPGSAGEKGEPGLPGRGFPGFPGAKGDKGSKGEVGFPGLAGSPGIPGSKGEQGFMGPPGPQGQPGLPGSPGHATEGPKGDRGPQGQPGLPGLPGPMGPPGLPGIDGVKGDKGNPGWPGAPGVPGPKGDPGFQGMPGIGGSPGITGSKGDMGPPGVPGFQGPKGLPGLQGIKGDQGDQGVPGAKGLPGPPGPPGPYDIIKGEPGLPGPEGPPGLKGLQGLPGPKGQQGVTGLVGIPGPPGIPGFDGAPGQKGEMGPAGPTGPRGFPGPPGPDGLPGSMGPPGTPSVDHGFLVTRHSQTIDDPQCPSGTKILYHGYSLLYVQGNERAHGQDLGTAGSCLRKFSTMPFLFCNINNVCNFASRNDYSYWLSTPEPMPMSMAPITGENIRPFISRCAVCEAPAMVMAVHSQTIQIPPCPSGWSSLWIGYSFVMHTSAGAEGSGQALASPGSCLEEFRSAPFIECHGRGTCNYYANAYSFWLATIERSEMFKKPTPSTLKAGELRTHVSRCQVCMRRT
T2 sequence (P08572 184-1712): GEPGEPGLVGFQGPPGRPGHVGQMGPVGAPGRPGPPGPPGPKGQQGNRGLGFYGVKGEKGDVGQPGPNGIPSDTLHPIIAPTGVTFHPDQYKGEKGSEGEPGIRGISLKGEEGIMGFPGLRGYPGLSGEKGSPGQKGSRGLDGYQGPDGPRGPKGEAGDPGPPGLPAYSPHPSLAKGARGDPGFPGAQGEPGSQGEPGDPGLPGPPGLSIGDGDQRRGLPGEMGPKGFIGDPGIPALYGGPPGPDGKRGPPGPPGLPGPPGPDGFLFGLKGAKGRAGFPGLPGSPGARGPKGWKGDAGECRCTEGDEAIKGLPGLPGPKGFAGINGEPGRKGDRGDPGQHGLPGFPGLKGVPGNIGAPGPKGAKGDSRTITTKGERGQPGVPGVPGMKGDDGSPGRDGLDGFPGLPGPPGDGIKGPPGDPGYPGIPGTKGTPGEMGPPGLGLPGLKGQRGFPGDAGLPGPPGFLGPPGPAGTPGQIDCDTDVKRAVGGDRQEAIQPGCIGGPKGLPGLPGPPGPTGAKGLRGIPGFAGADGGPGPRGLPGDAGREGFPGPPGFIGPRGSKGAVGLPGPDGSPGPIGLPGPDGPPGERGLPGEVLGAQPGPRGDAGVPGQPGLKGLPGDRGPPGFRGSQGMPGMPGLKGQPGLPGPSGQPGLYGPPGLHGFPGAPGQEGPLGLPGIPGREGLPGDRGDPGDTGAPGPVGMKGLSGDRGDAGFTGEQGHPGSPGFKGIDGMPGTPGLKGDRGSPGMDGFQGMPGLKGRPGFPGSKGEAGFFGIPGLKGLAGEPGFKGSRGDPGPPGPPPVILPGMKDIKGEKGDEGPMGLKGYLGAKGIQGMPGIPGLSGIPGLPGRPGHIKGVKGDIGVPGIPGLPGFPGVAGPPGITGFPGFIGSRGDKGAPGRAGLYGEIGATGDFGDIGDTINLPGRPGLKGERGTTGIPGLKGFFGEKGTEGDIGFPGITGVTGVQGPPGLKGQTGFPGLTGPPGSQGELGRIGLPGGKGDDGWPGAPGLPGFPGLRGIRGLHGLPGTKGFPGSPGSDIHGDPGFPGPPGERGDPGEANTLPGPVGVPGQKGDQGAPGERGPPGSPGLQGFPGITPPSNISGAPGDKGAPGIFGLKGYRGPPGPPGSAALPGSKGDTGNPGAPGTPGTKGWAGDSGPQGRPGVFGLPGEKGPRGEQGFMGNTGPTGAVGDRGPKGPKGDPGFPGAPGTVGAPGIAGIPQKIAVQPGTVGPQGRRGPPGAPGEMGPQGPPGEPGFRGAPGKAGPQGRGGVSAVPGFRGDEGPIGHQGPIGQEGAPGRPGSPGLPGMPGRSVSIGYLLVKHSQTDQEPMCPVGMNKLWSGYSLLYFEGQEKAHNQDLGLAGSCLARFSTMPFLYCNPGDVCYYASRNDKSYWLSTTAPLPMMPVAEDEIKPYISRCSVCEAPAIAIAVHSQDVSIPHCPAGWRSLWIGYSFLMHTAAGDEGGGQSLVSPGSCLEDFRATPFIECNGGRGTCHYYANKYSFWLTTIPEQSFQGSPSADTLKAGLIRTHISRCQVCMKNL

With chondroitin sulfate as the substance, how does the “competition for the binding of tritiated heparin to peptide Hep-III” value (“competition for the binding” below) (peptide Hep-III) read?
The value was “cannot mimic this effect except at extremely high concentrations”.

For dextran, which “competition for the binding” value (peptide Hep-III) is on record?
The value was “substantially more dextran is needed to achieve similar levels of competition”.

What does the source list for “gly-glu-phe-tyr-phe-asp-leu-arg-leu-lys-gly-asp-lys (GEFYFDLRLKGDK) [Hep-III, …; type IV collagen residues 531-543 from the amino-terminus of the α1 chain]”?
binding of 3H-heparin to coated peptide ([1]; peptide coated on 96-well plastic plates, 3H-heparin 0 to 1400 ng/well, 2 h, 37° C.): extremely potent promoter of heparin-binding to synthetic substrates; also recorded: strong binding to heparin; also recorded: very potent binder of heparin; heparin binding strength relative to peptide Hep-I (TS-2) [1, 7]: at least 10 times; heparin binding strength relative to type IV collagen [1, 7]: about 100 times; inhibition of heparin binding to type IV collagen (type IV collagen): strong inhibitor of heparin binding to type IV collagen; maximal melanoma cell adhesion (K-1735-M4 melanoma cells; peptide coated at increasing concentrations): 70,000 dpm; melanoma cell adhesion (K-1735-M4 melanoma cells; peptide concentration 0.5 μg/well): 80 % of input; decrease of melanoma cell binding to type IV collagen-coated substrata (melanoma cell line (M4)): dramatically decrease the binding of melanoma cells; endothelial cell adhesion to coated substrate (in words) [2]: promotes substantial adhesion of endothelial cells even at very low plating concentrations; binding of 125I-labeled peptide to endothelial cell surface (endothelial cells [3]): saturable; binding of 125I-labeled peptide to melanoma cell surface (melanoma cells [4]): with a tendency for saturation at the higher concentrations used; competition of radiolabeled Hep-III binding to melanoma cells by unlabeled peptide (melanoma cells [5]): can be competed only by an excess of unlabeled peptide Hep-III; competition of radiolabeled Hep-III binding to endothelial cells by unlabeled peptide (endothelial cells [6]): could efficiently compete

For heparin, which “competition for the binding” value (peptide Hep-III) is on record?
Its value is “able to compete for the binding of tritiated heparin to peptide Hep-III at very low concentrations”.
